Measurements from patent publication US8987522B2, “Differentiation inducer to brown-like adipocyte of white adipocyte” (Uha Mikakuto Co., Ltd., priority 2012, dated 2015).

Columns and labels:
mature adipocytes [1] = conditions: Japanese Patent Application No. 2011-145331; cited from earlier work
mature adipocytes [2] = conditions: Japanese Patent Application No. 2011-186054; cited from earlier work
[3] = system: 3T3-L1 cells (mouse-derived preadipocytes); assay: Expression of indicator protein CO1 (mitochondria marker), Western blot; format: cell-based
Description: (§1) In order to evaluate the differentiation induction action to brown-like adipocytes of white adipocytes, the evaluation was carried out using 3T3-L1 cells (mouse-derived preadipocytes). The 3T3-L1 preadipocytes are usually differentiated to white adipocytes through a differentiation induction process to be matured. However, by the differentiation induction to brown-like adipocytes, an increase in the expression amount of cytochrome c oxidase protein specifically expressed in mitochondria is observed. Then, the differentiation induction to brown-like adipocytes of white adipocytes was confirmed based on the expression amount of the CO1 protein.
Culture of cells was carried out by the same method as that of Example 2 using the same samples and cells as those in Example 2. […] After the extraction, the protein concentration was measured using a BCA protein assay kit (manufactured by Thermo Fisher Scientific K.K.). […]
After the electrophoresis, the proteins are transferred to PVDF membranes (manufactured by EMD Millipore) by a semidry blotting device “TRANS-BLOT S-D SEMI-DRY TRANSFER CELL” (Product name, manufactured by Bio-Rad Laboratories Inc.), and then blotting was carried out by Immunoblock (manufactured by DS Pharma Biomedical Co., Ltd.). […] The band strength of the detected band was calculated using an image analysis software “Image J”.

preadipocytes = conditions: Japanese Patent Application No. 2012-240364; cited from earlier work
[4] = system: human vascular endothelial cells; conditions: Japanese Patent Application No. 2011-118367; cited from earlier work
[5] = system: 3T3-L1 cells (mouse-derived preadipocytes); assay: Expression of indicator genes (Cidea, Cox7a1, UCP1) of differentiation induction to brown-like adipocytes, real-time RT-PCR; format: cell-based; conditions: for differentiation induction action to brown-like adipocytes from white adipocytes: 3T3-L1, overall conclusion
Description: as §1, with “an expression of Cidea gene, an increase in the expression amount of Cox7a1 gene expressed in mitochondria, an” for “an”, “mitochondria, and an expression enhancement of UCP1 gene, which are hardly observed in white adipocytes, are” for “mitochondria is”, “each gene of Cidea, Cox7a1, and UCP1.” for “the CO1 protein.”
For samples, two substances of resveratrol and UHA1028 were used. Since the action of the differentiation induction to brown-like adipocytes was not observed in sinapic acid, sinapic acid was not used as a comparison target. Each sample was dissolved in dimethylsulfoxide (DMSO, manufactured by Wako Pure Chemical Industries, Ltd.) with a concentration of 4 mM and 2 mM to be used for a test.
Culture was carried out using “Dulbecco's modified Eagle medium” (DMEM, Product name, manufactured by Sigma-Aldrich Corporation) containing 10% “Foetal Bovine Serum” (FBS, manufactured by Biological industries), 1% “Antibiotic-Antimycotic”, and GIBCO (manufactured by Life Technology Corporation). Adipocytes to be used for the test were prepared in accordance with a usual method.
The test was carried out as follows. 2 mL of 3T3-L1 cells were sowed with a concentration of 5×10^4 cells/mL in a 6 well dish for cell culture (manufactured by Japan Becton, Dickinson and Company), and then cultured under the conditions of 37° C. and 5% CO2 for 24 hours. 24 hours later, the DMEM culture medium was exchanged to a DMEM culture medium which was adjusted in such a manner that the final concentration of the UHA1028 was 10 μM or the final concentration of the resveratrol was 20 μM, culture was continued in such a manner that the cells were confluent to 100%, and then culture was further carried out for 48 hours. Next, the culture medium was exchanged to a culture medium in which 10 μL of each sample (Final concentration of 20 μM and 10 μM) was added to 2 mL DMEM for differentiation, to which 1% of insulin, 0.5% of dexamethasone, and 0.1% of isobutylmethylxanthine were added, attached to “AdipoInducer Reagent” (Product name, manufactured by Takara Bio, Inc.), and then differentiation induction was carried out under the conditions of 37° C. and 5% CO2 for 48 hours. After the differentiation induction for 48 hours, the culture medium was exchanged to 2 mL of DMEM for maintaining culture to which 1% of insulin was added, and then culture was further carried out for one week for maturing adipocytes. One to which 0.5% of only DMSO which is a solvent was added was used as a control.
After the end of the culture, the total amount RNA was extracted from the cells using an RNA extraction kit (Product name: NucleoSpin (Registered Trademark) RNA II, manufactured by Takara Bio, Inc.) and refined. […]

[6] = 3T3-L1, UHA1028 10 μM, as compared with resveratrol 20 μM, FIG. 1

Compound | adiponectin production promotion action (mature adipocytes [1]) | lipoprotein lipase promotion action (mature adipocytes [2]) | mitochondria marker protein (CO1) expressed in mature adipocytes ([3]; 3T3-L1, Western blot band strength, as compared with DMSO and resveratrol, FIG. 2) | amount of mitochondria in the cells ([3]; 3T3-L1, results of Examples 2 and 3, as compared with resveratrol) | differential inhibition action to mature adipocytes of preadipocytes (preadipocytes) | sirtuin expression promotion action [4] | expression amount of the Cox7a1 (mitochondria marker gene) [5, 6] | expression amount of the UCP1 gene [5, 6] | gene expression amount of the Cidea (marker gene of the brown-like adipocytes) [5, 6] | differentiation induction action to brown-like adipocytes from white adipocytes [5]
COc1cc(C(C)c2c(O)cc(/C=C/c3ccc(O)cc3)cc2O)cc(OC)c1O (centres unmarked) [UHA1028] | adiponectin production promotion action | lipoprotein lipase promotion action | significantly large | significantly increased | differential inhibition action | sirtuin expression promotion action | significantly increased | significantly increased | significantly increased | notably induced
COc1cc(/C=C/C(=O)O)cc(OC)c1O [sinapic acid, reference compound] |  |  |  |  |  |  |  |  |  | not observed
